Measured values: patent publication US11464749B2, “Bismuth-thiol compositions and methods of use” (Microbion Corporation, priority 2018, dated 2022)
Read-outs that look alike come from different tables or passages of the source.

How the values were obtained:
Klebsiella pneumoniae [1] = assay: Broth microdilution MIC (Example 12); conditions: Klebsiella pneumoniae
Escherichia coli [2] = assay: Broth microdilution MIC (Example 11)
E. faecalis = assay: Broth microdilution MIC (Example 11); conditions: Enterococcus faecalis, VRE, VRE Lev^R Cip^R Ery^R
Acinetobacter baumannii [3] = assay: Broth microdilution MIC (Example 12); conditions: Acinetobacter baumannii
Acinetobacter baumannii [4] = assay: Broth microdilution MIC (Example 11); conditions: Acinetobacter baumannii
Escherichia coli [5] = assay: Broth microdilution MIC (Example 12); conditions: Escherichia coli
[6] = test system: Staphylococcus aureus (MRSA); assay: Broth microdilution MIC (Example 11)
Pseudomonas aeruginosa [7] = assay: Broth microdilution MIC (Example 12); conditions: Pseudomonas aeruginosa
Pseudomonas aeruginosa [8] = assay: Broth microdilution MIC (Example 11); conditions: Pseudomonas aeruginosa
S. pneumoniae = assay: Broth microdilution MIC (Example 11); conditions: Streptococcus pneumoniae
Klebsiella pneumoniae [9] = assay: Broth microdilution MIC (Example 11)
S. pyogenes = assay: Broth microdilution MIC (Example 11); conditions: Streptococcus pyogenes
S. agalactiae = assay: Broth microdilution MIC (Example 11); conditions: Streptococcus agalactiae

CC(S)C(C)S.[Bi] (stereo not drawn) [BisBDT, bismuth-2,3-butanedithiol]
MIC (Klebsiella pneumoniae [1]; ATCCBAA1705, K. pneumoniae ATCC BAA-1705, ESBL/KPC): 1 µg/mL
MIC (Klebsiella pneumoniae [1]; ATCCBAA1705, K. pneumoniae ATCC BAA-1705, QC organism (Table 102)): 1 µg/mL
MIC (Klebsiella pneumoniae [1]; K. pneumoniae CDC 112, KPC): 2 µg/mL
MIC (Klebsiella pneumoniae [1]; K. pneumoniae CDC 113, ESBL/KPC): 1 µg/mL
MIC (Klebsiella pneumoniae [1]; K. pneumoniae CDC 115, ESBL/KPC): 2 µg/mL
MIC (Klebsiella pneumoniae [1]; K. pneumoniae CDC 120, ESBL/KPC): 2 µg/mL
MIC (Klebsiella pneumoniae [1]; K. pneumoniae CDC 126, ESBL/KPC): 2 µg/mL
MIC (Klebsiella pneumoniae [1]; K. pneumoniae CDC 129, ESBL/KPC): 4 µg/mL
MIC (Klebsiella pneumoniae [1]; K. pneumoniae CDC 135, ESBL/VIM): 4 µg/mL
MIC (Klebsiella pneumoniae [1]; K. pneumoniae CDC 138, ESBL/NDM): 2 µg/mL
MIC (Klebsiella pneumoniae [1]; K. pneumoniae CDC 158, ESBL/NDM/OXA): 2 µg/mL
MIC (Klebsiella pneumoniae [1]; K. pneumoniae MMX 9029, ESBL): 2 µg/mL
MIC (Escherichia coli [2]; ATCC25922, E. coli MMX 102 (ATCC 25922), QC): 0.5 µg/mL
MIC (Escherichia coli [2]; ATCCBAA2469, E. coli MMX 5980 (ATCC BAA-2469), NDM-1, Lev^R, MEM^R, CAZ^R, Gm^R): 1 µg/mL
MIC (Escherichia coli [2]; E. coli MMX 8423, ESBL, Lev^R, CAZ^R, Gm^R): 1 µg/mL
MIC (Escherichia coli [2]; E. coli MMX 8424, ESBL, CAZ^R): 0.5 µg/mL
MIC (Escherichia coli [2]; E. coli MMX 8425, ESBL, Lev^R, CAZ^R, Gm^R): 1 µg/mL
MIC (E. faecalis; E. faecalis MMX 8960): 0.5 µg/mL
MIC (E. faecalis; E. faecalis MMX 8961): 0.25 µg/mL
MIC (E. faecalis; E. faecalis MMX 8962): 0.25 µg/mL
MIC (Acinetobacter baumannii [3]; A. baumannii CDC 273, ESBL/OXA): 0.5 µg/mL
MIC (Acinetobacter baumannii [3]; A. baumannii CDC 274, ESBL/OXA): 0.5 µg/mL
MIC (Acinetobacter baumannii [3]; A. baumannii CDC 275, ESBL/OXA): 0.5 µg/mL
MIC (Acinetobacter baumannii [3]; A. baumannii CDC 277, ESBL/OXA): 1 µg/mL
MIC (Acinetobacter baumannii [3]; A. baumannii CDC 284, ESBL/OXA): 1 µg/mL
MIC (Acinetobacter baumannii [3]; A. baumannii CDC 307, OXA): 0.5 µg/mL
MIC (Acinetobacter baumannii [3]; A. baumannii CDC 308, ESBL/OXA): 0.5 µg/mL
MIC (Acinetobacter baumannii [3]; A. baumannii CDC 311, OXA): 0.5 µg/mL
MIC (Acinetobacter baumannii [3]; A. baumannii CDC 312, OXA): 0.5 µg/mL
MIC (Acinetobacter baumannii [3]; A. baumannii CDC 313, ESBL/OXA): 0.5 µg/mL
MIC (Acinetobacter baumannii [3]; NCTC13304, A. baumannii NCTC 13304, OXA): 0.5 µg/mL
MIC (Acinetobacter baumannii [4]; A. baumannii MMX 2592, MDR, Lev^R, Cip^R, MEM^R, CAZ^R, Gm^R): 0.5 µg/mL
MIC (Acinetobacter baumannii [4]; A. baumannii MMX 2593, MDR, Lev^R, Cip^R, MEM^R, CAZ^R, Gm^R): 0.5 µg/mL
MIC (Acinetobacter baumannii [4]; A. baumannii MMX 3372, MDR, Cip^R, MEM^I, CAZ^I): 1 µg/mL
MIC (Acinetobacter baumannii [4]; A. baumannii MMX 3373, Sensitive): 0.5 µg/mL
MIC (Acinetobacter baumannii [4]; NCTC13304, A. baumannii MMX 4651 (NCTC 13304), MDR, OXA-27, Lev^R, Cip^R, MEM^R, CAZ^R, Gm^I): 0.5 µg/mL
MIC (Escherichia coli [5]; ATCC25922, E. coli ATCC 25922, QC organism): 1 µg/mL
MIC (Escherichia coli [5]; ATCC35218, E. coli ATCC 35218, ESBL): 1 µg/mL
MIC (Escherichia coli [5]; ATCC35218, E. coli ATCC 35218, QC organism (Table 102)): 1 µg/mL
MIC (Escherichia coli [5]; ATCCBAA2471, E. coli ATCC BAA-2471, NDM): 2 µg/mL
MIC (Escherichia coli [5]; E. coli CDC 114, ESBL/KPC): 2 µg/mL
MIC (Escherichia coli [5]; E. coli CDC 118, ESBL/NDM): 1 µg/mL
MIC (Escherichia coli [5]; E. coli CDC 435, NDM): 1 µg/mL
MIC (Escherichia coli [5]; E. coli CDC 451, KPC): 1 µg/mL
MIC (Escherichia coli [5]; E. coli CDC 503, ESBL/NDM): 2 µg/mL
MIC (Escherichia coli [5]; E. coli MMX 5745, KPC): 2 µg/mL
MIC (Escherichia coli [5]; E. coli MMX 5755, ESBL): 2 µg/mL
MIC (Escherichia coli [5]; E. coli MMX 5756, ESBL): 1 µg/mL
MIC (Escherichia coli [5]; E. coli MMX 5758, ESBL): 1 µg/mL
MIC ([6]; ATCC29213 / MRSA / MSSA): ≤ 0.06 µg/mL
MIC ([6]; MRSA): ≤ 0.06 µg/mL
MIC ([6]; MRSA, read-out: MIC values): < 0.06 µg/mL
MIC (Pseudomonas aeruginosa [7]; ATCC27853, P. aeruginosa ATCC 27853, QC organism): 1 µg/mL
MIC (Pseudomonas aeruginosa [7]; P. aeruginosa CDC 230, VIM/OXA): 2 µg/mL
MIC (Pseudomonas aeruginosa [7]; P. aeruginosa CDC 231, KPC/OXA): 2 µg/mL
MIC (Pseudomonas aeruginosa [7]; P. aeruginosa CDC 241, IMP/OXA): 8 µg/mL
MIC (Pseudomonas aeruginosa [7]; P. aeruginosa CDC 246, NDM/OXA): 2 µg/mL
MIC (Pseudomonas aeruginosa [7]; P. aeruginosa CDC 250, NDM/OXA): 2 µg/mL
MIC (Pseudomonas aeruginosa [7]; P. aeruginosa CDC 356, KPC): 1 µg/mL
MIC (Pseudomonas aeruginosa [7]; P. aeruginosa CDC 439, IMP): 1 µg/mL
MIC (Pseudomonas aeruginosa [7]; P. aeruginosa CDC 444, VIM): 1 µg/mL
MIC (Pseudomonas aeruginosa [7]; P. aeruginosa CDC 457, VIM): 2 µg/mL
MIC (Pseudomonas aeruginosa [7]; P. aeruginosa CDC 516, KPC/AmpC): 1 µg/mL
MIC (Pseudomonas aeruginosa [7]; P. aeruginosa CDC 518, KPC/AmpC): 1 µg/mL
MIC (Pseudomonas aeruginosa [8]; ATCC27853, P. aeruginosa MMX 103 (ATCC 27853), QC): 1 µg/mL
MIC (Pseudomonas aeruginosa [8]; P. aeruginosa MMX 1381, MDR, Lev^R, Cip^R, MEM^R, CAZ^R): 1 µg/mL
MIC (Pseudomonas aeruginosa [8]; P. aeruginosa MMX 2562, MDR, Lev^R, Cip^R, MEM^R, CAZ^R): 2 µg/mL
MIC (Pseudomonas aeruginosa [8]; P. aeruginosa MMX 3991, MDR, Lev^R, Cip^R, MEM^R, CAZ^R): 2 µg/mL
MIC (Pseudomonas aeruginosa [8]; P. aeruginosa MMX 4654, IMP-7, Lev^R, Cip^R, MEM^R, CAZ^R): 2 µg/mL
MIC (Pseudomonas aeruginosa [8]; P. aeruginosa MMX 4697, VIM-2, Lev^R, Cip^R, MEM^R, CAZ^R): 2 µg/mL
MIC (S. pneumoniae; ATCC49619, S. pneumoniae MMX 6837 (ATCC 49619), QC): 0.5 µg/mL
MIC (S. pneumoniae; S. pneumoniae MMX 880, Lev^R SXT^R CC^R Ery^R Pen^R): 0.5 µg/mL
MIC (S. pneumoniae; S. pneumoniae MMX 937, Mem^R SXT^R CC^R Ery^R Pen^R): 8 µg/mL
MIC (S. pneumoniae; S. pneumoniae MMX 3959, CC^R Ery^R): 1 µg/mL
MIC (S. pneumoniae; S. pneumoniae MMX 5440, Mem^R SXT^R CC^R Ery^R Pen^R): 0.5 µg/mL
MIC (S. pneumoniae; S. pneumoniae MMX 5445, Mem^R SXT^R CC^R Ery^R Pen^R): 0.5 µg/mL
MIC (S. pneumoniae; S. pneumoniae MMX 8133, Mem^R SXT^R CC^R Ery^R Pen^R): 0.5 µg/mL
MIC (S. pneumoniae; read-out: MIC values, pneumococci incl. multi-drug resistant): 0.5 to 8 µg/mL
MIC (Klebsiella pneumoniae [9]; K. pneumoniae MMX 4622, KPC-2, MEM^R, CAZ^R): 1 µg/mL
MIC (Klebsiella pneumoniae [9]; K. pneumoniae MMX 4623, KPC-2, MEM^R, CAZ^R, GM^R): 0.5 µg/mL
MIC (Klebsiella pneumoniae [9]; K. pneumoniae MMX 4653, KPC-3, Lev^R, MEM^R, CAZ^R): 2 µg/mL
MIC (Klebsiella pneumoniae [9]; K. pneumoniae MMX 4683, KPC-2, Lev^R, MEM^R, CAZ^R): 1 µg/mL
MIC (Klebsiella pneumoniae [9]; K. pneumoniae MMX 4684, ESBL, MEM^R): 2 µg/mL
MIC (Klebsiella pneumoniae [9]; K. pneumoniae MMX 4685, ESBL, Lev^R, MEM^R, CAZ^R): 1 µg/mL
MIC (Klebsiella pneumoniae [9]; K. pneumoniae MMX 4694, KPC-3, Lev^R, MEM^R, CAZ^R): 1 µg/mL
MIC (Klebsiella pneumoniae [9]; K. pneumoniae MMX 5979, NDM-1, Lev^R, MEM^R, CAZ^R, Gm^R): 1 µg/mL
MIC (S. pyogenes; S. pyogenes MMX 3068, Ery^R): 0.12 µg/mL
MIC (S. pyogenes; S. pyogenes MMX 3820, ERY^R CLI^R): 0.5 µg/mL
MIC (S. pyogenes; S. pyogenes MMX 3919, ERY^R): 0.03 µg/mL
MIC (S. pyogenes; S. pyogenes MMX 3929, ERY^R CC^R): 0.5 µg/mL
MIC (S. pyogenes; S. pyogenes MMX 5091, ERY^R CC^R): 1 µg/mL
MIC (S. agalactiae; S. agalactiae MMX 3741, ERY^R CC^R): 0.25 µg/mL
MIC (S. agalactiae; S. agalactiae MMX 3743, ERY^R CC^R): 0.25 µg/mL
MIC (S. agalactiae; S. agalactiae MMX 4077, ERY^R CC^R): 0.25 µg/mL
MIC (S. agalactiae; S. agalactiae MMX 4079, ERY^R CC^R Pen^R MEM^R): 0.5 µg/mL
MIC (S. agalactiae; S. agalactiae MMX 4086, ERY^R CC^R): 0.25 µg/mL
